Assay results taken from ChEMBL document CHEMBL1201862, “PubChem BioAssay data set” (2004).
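Growth conditions: 96-well plates. Treatment: test compound, 48 hours, 5 concentrations. Analysis: linear interpolation between bracketing concentrations; unreached endpoints set to highest concentration. At the GI50, growth is halved.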 The source made the active and inactive calls. No stated cut-off is given here; in the data, active = GI50 up to about 1.1 µM and inactive = higher.

Experiments:
Assay in all cases: NCI-60 cell line screen, 48 h
786-0 = tested on: 786-0
HCC 2998 = tested on: HCC 2998
RXF 393 = tested on: RXF 393
MDA-MB-435 = tested on: MDA-MB-435
MOLT-4 = tested on: MOLT-4
UACC-62 = tested on: UACC-62
U-251 = tested on: U-251
A549 = tested on: A549
BT-549 = tested on: BT-549
Malme-3M = tested on: Malme-3M
OVCAR-8 = tested on: OVCAR-8
M14 = tested on: M14
HT-29 = tested on: HT-29
CCRF-CEM = tested on: CCRF-CEM
MDA-MB-231 = tested on: MDA-MB-231
OVCAR-5 = tested on: OVCAR-5
SNB-19 = tested on: SNB-19
NCI-H23 = tested on: NCI-H23
K562 = tested on: K562
A498 = tested on: A498
SNB-75 = tested on: SNB-75
MDA-N = tested on: MDA-N
HCT-116 = tested on: HCT-116
SK-MEL-28 = tested on: SK-MEL-28
UACC-257 = tested on: UACC-257
NCI-H226 = tested on: NCI-H226
HCT-15 = tested on: HCT-15
SF-539 = tested on: SF-539
HOP-92 = tested on: HOP-92
PC-3 = tested on: PC-3
NCI-H522 = tested on: NCI-H522
NCI/ADR-RES = tested on: NCI/ADR-RES
IGROV-1 = tested on: IGROV-1
SF-268 = tested on: SF-268
HOP-62 = tested on: HOP-62
NCI-H460 = tested on: NCI-H460
SW-620 = tested on: SW-620
Hs-578T = tested on: Hs-578T
DU-145 = tested on: DU-145
ACHN = tested on: ACHN
SR = tested on: SR
TK-10 = tested on: TK-10
LOX IMVI = tested on: LOX IMVI
OVCAR-4 = tested on: OVCAR-4
SF-295 = tested on: SF-295
SK-MEL-5 = tested on: SK-MEL-5
SK-OV-3 = tested on: SK-OV-3
UO-31 = tested on: UO-31
SK-MEL-2 = tested on: SK-MEL-2
SN12C = tested on: SN12C
CAKI-1 = tested on: CAKI-1
RPMI-8226 = tested on: RPMI-8226
COLO 205 = tested on: COLO 205
MCF7 = tested on: MCF7
KM12 = tested on: KM12
EKVX = tested on: EKVX
OVCAR-3 = tested on: OVCAR-3
HL-60 = tested on: HL-60
T47D = tested on: T47D

Structure (SMILES): CCOC(=O)/C=C(\C(=O)OCC)n1cnc2c(N)ncnc21
- GI50 (786-0): 2.77 µM (inactive)
- GI50 (HCC 2998): 16 µM (inactive)
- GI50 (RXF 393): 12.6 µM (inactive)
- GI50 (MDA-MB-435): 11.8 µM (inactive)
- GI50 (MOLT-4): 2.44 µM (inactive)
- GI50 (UACC-62): 10.7 µM (inactive)
- GI50 (U-251): 7.94 µM (inactive)
- GI50 (A549): 17.1 µM (inactive)
- GI50 (BT-549): 12.1 µM (inactive)
- GI50 (Malme-3M): 4.29 µM (inactive)
- GI50 (OVCAR-8): 7.45 µM (inactive)
- GI50 (M14): 10.4 µM (inactive)
- GI50 (HT-29): 6.68 µM (inactive)
- GI50 (CCRF-CEM): 1.63 µM (inactive)
- GI50 (MDA-MB-231): 7.31 µM (inactive)
- GI50 (OVCAR-5): 5.83 µM (inactive)
- GI50 (SNB-19): 16.1 µM (inactive)
- GI50 (NCI-H23): 13.7 µM (inactive)
- GI50 (K562): 1.99 µM (inactive)
- GI50 (A498): 13.2 µM (inactive)
- GI50 (SNB-75): 12.4 µM (inactive)
- GI50 (MDA-N): 14.6 µM (inactive)
- GI50 (HCT-116): 3.11 µM (inactive)
- GI50 (SK-MEL-28): 13.6 µM (inactive)
- GI50 (UACC-257): 14.5 µM (inactive)
- GI50 (NCI-H226): 5.97 µM (inactive)
- GI50 (HCT-15): 3.08 µM
- GI50 (SF-539): 14.1 µM (inactive)
- GI50 (HOP-92): 2.28 µM (inactive)
- GI50 (PC-3): 13.3 µM (inactive)
- GI50 (NCI-H522): 1.6 µM (inactive)
- GI50 (NCI/ADR-RES): 17.2 µM (inactive)
- GI50 (IGROV-1): 10.8 µM (inactive)
- GI50 (SF-268): 15.3 µM (inactive)
- GI50 (HOP-62): 22.6 µM (inactive)
- GI50 (NCI-H460): 17.9 µM (inactive)
- GI50 (SW-620): 2.74 µM (inactive)
- GI50 (Hs-578T): 19.7 µM (inactive)
- GI50 (DU-145): 15.6 µM (inactive)
- GI50 (ACHN): 6.67 µM (inactive)
- GI50 (SR): 1.91 µM (inactive)
- GI50 (TK-10): 5.02 µM (inactive)
- GI50 (LOX IMVI): 3.43 µM (inactive)
- GI50 (OVCAR-4): 15.2 µM (inactive)
- GI50 (SF-295): 16.8 µM (inactive)
- GI50 (SK-MEL-5): 14.7 µM (inactive)
- GI50 (SK-OV-3): 17.7 µM (inactive)
- GI50 (UO-31): 16.5 µM (inactive)
- GI50 (SK-MEL-2): 16.8 µM (inactive)
- GI50 (SN12C): 5.19 µM (inactive)
- GI50 (CAKI-1): 1.4 µM (inactive)
- GI50 (RPMI-8226): 2.02 µM (inactive)
- GI50 (COLO 205): 1.99 µM (inactive)
- GI50 (MCF7): 2.64 µM (inactive)
- GI50 (KM12): 14.8 µM (inactive)
- GI50 (EKVX): 8.2 µM (inactive)
- GI50 (OVCAR-3): 8.41 µM (inactive)
- GI50 (HL-60): 0.931 µM (active)
- GI50 (T47D): 2.92 µM (inactive)

Structure (SMILES): c1ccc(COCC23CCN(Cc4ccccc4)C(CC(OCc4ccccc4)C2)S3)cc1 (configuration not stated)
- GI50 (786-0): > 100 µM (inactive)
- GI50 (HCC 2998): 58.5 µM (inactive)
- GI50 (RXF 393): > 100 µM (inactive)
- GI50 (MDA-MB-435): 46 µM (inactive)
- GI50 (MOLT-4): 25.6 µM (inactive)
- GI50 (UACC-62): 52.4 µM (inactive)
- GI50 (U-251): 44.8 µM (inactive)
- GI50 (A549): 41.4 µM (inactive)
- GI50 (BT-549): 42.6 µM (inactive)
- GI50 (Malme-3M): 29.7 µM (inactive)
- GI50 (OVCAR-8): 73.5 µM (inactive)
- GI50 (M14): 39.3 µM (inactive)
- GI50 (HT-29): 25.8 µM (inactive)
- GI50 (CCRF-CEM): 56.8 µM (inactive)
- GI50 (MDA-MB-231): 66.4 µM (inactive)
- GI50 (OVCAR-5): 38.2 µM (inactive)
- GI50 (SNB-19): 90.8 µM (inactive)
- GI50 (NCI-H23): 31.4 µM (inactive)
- GI50 (K562): 31 µM (inactive)
- GI50 (A498): 39.3 µM (inactive)
- GI50 (SNB-75): > 100 µM (inactive)
- GI50 (MDA-N): 50.9 µM (inactive)
- GI50 (HCT-116): 42.7 µM (inactive)
- GI50 (SK-MEL-28): > 100 µM (inactive)
- GI50 (UACC-257): 45.3 µM (inactive)
- GI50 (NCI-H226): 97.3 µM (inactive)
- GI50 (HCT-15): 28.6 µM
- GI50 (SF-539): > 100 µM (inactive)
- GI50 (HOP-92): 20.3 µM (inactive)
- GI50 (PC-3): 31.8 µM (inactive)
- GI50 (NCI-H522): 29.7 µM (inactive)
- GI50 (NCI/ADR-RES): 83 µM (inactive)
- GI50 (IGROV-1): > 100 µM (inactive)
- GI50 (SF-268): 73.3 µM (inactive)
- GI50 (HOP-62): 65.9 µM (inactive)
- GI50 (NCI-H460): 46.7 µM (inactive)
- GI50 (SW-620): > 100 µM (inactive)
- GI50 (Hs-578T): 86.3 µM (inactive)
- GI50 (DU-145): > 100 µM (inactive)
- GI50 (ACHN): 78.9 µM (inactive)
- GI50 (SR): 26.6 µM (inactive)
- GI50 (LOX IMVI): 19.3 µM (inactive)
- GI50 (OVCAR-4): 53.1 µM (inactive)
- GI50 (SF-295): 87.1 µM (inactive)
- GI50 (SK-MEL-5): 15.8 µM (inactive)
- GI50 (SK-OV-3): > 100 µM (inactive)
- GI50 (UO-31): 30.2 µM (inactive)
- GI50 (SK-MEL-2): 37.2 µM (inactive)
- GI50 (SN12C): 57.9 µM (inactive)
- GI50 (CAKI-1): 77.1 µM (inactive)
- GI50 (RPMI-8226): 35.2 µM (inactive)
- GI50 (COLO 205): 35.2 µM (inactive)
- GI50 (MCF7): 14.8 µM (inactive)
- GI50 (KM12): 44.1 µM (inactive)
- GI50 (EKVX): 49 µM (inactive)
- GI50 (OVCAR-3): 97.5 µM (inactive)
- GI50 (HL-60): 19.5 µM (inactive)
- GI50 (T47D): 26.4 µM (inactive)
